Measured values taken from patent US11932658B2 (BRISTOL-MYERS SQUIBB COMPANY, priority 2016, dated 2024).

Biological target: T1, PAR4 (Homo sapiens, UniProt Q96RI0)
T1 construct: expressed in transfected cells; host or cells: HEK293 PAR4 Clone 1.2A (BMS Arctic ID 383940)
T1 sequence (Q96RI0 18-385): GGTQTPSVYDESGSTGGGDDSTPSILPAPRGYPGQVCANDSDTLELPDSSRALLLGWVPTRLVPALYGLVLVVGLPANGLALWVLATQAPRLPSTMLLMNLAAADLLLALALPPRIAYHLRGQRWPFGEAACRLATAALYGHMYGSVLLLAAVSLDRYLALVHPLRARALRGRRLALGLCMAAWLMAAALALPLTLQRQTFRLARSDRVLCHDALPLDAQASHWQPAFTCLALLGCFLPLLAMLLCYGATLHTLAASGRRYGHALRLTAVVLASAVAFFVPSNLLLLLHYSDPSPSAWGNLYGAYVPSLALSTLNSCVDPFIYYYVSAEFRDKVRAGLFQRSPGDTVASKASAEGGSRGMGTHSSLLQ
Experiment: PAR4 FLIPR assay (antagonism of agonist peptide-induced calcium mobilization)
Format: cell-based
How it was run: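 Antagonism was taken as block of calcium mobilization evoked by the agonist peptide H-Ala-Phe(4-F)-Pro-Gly-Trp-Leu-Val-Lys-Asn-[…]-NH2, added after 30 min room-temperature compound preincubation in dye-loaded PAR4-transfected HEK293 cells (endogenous PAR1). Fluorescence was read on FDSS, with compound addition alone used as the agonist counter-screen; values come from 11-point concentration-response curves.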

| IC50 [nM] | Structure (SMILES) |
| --- | --- |
| 1.6 | COc1cnc2c(-c3nc4c(C)cc5c(c4s3)OCC(COC(=O)Nc3cnc4c(c3)ncn4C)O5)cc(C)cc2n1 (centres unmarked) [Example 129, (2-(2-methoxy-7-methylquinoxalin-5-yl)-4-methyl-7,8-dihydro-[1,4]dioxino[2′,3′:3,4]benzo[1,2-d]thiazol-7-yl)methyl (3-methyl-3H-imidazo [4,5-b]pyridin-6-yl)carbamate] |
| 3.9 | COc1cnc2c(-c3nc4c(C)cc5c(c4s3)OCC(COC(=O)Nc3cncc(Cl)c3)O5)cc(C)cc2n1 (centres unmarked) [Example 132, (2-(2-methoxy-7-methylquinoxalin-5-yl)-4-methyl-7,8-dihydro-[1,4]dioxino[2′,3′:3,4]benzo[1,2-d]thiazol-7-yl)methyl (5-chloropyridin-3-yl)carbamate] |
| 1.4 | COc1cnc2c(-c3nc4c(C)cc5c(c4s3)OCC(COC(=O)Nc3cncc(C(F)(F)F)c3)O5)cc(C)cc2n1 (centres unmarked) [Example 135] |
| 170 | COc1cnc2c(-c3nc4c(C)cc5c(c4s3)OCC(COC(=O)Nc3ccc(N)nc3)O5)cc(C)cc2n1 (centres unmarked) [Example 141, (2-(2-methoxy-7-methylquinoxalin-5-yl)-4-methyl-7,8-dihydro-[1,4]dioxino[2′,3′:3,4]benzo[1,2-d]thiazol-7-yl)methyl (6-aminopyridin-3-yl)carbamate] |
| 5.5 | COCc1cnc2c(-c3nc4cc5c(cc4s3)OCO5)cc(C)cc2n1 [Example 143, 6-(2-(methoxymethyl)-7-methylquinoxalin-5-yl)-[1,3]dioxolo[4′,5′:4,5]benzo[1,2-d]thiazole] |
| 1.1 | COc1cnc2c(-c3nc4cc(F)c5c(c4s3)C[C@@H](CO)O5)cc(C)cc2n1 [Example 146, (S)-(5-fluoro-2-(2-methoxy-7-methylquinoxalin-5-yl)-7,8-dihydrobenzofuro[5,4-d]thiazol-7-yl)methanol] |
| 1.5 | COc1cnc2c(-c3nc4ccc5c(c4s3)C[C@@H](CO)O5)cc(C)cc2n1 [Example 149, (S)-(2-(2-methoxy-7-methylquinoxalin-5-yl)-7,8-dihydrobenzofuro[5,4-d]thiazol-7-yl)me thanol] |
| 5.4 | COc1cnc2c(-c3nc4ccc5c(c4s3)C[C@@H](COC(=O)Nc3cnc(C)nc3)O5)cc(C)cc2n1 [Example 150, (S)-(2-(2-methoxy-7-methylquinoxalin-5-yl)-7,8-dihydrobenzofuro[5,4-d]thiazol-7-yl)me thyl (2-methylpyrimidin-5-yl)carbamate] |
| 11 | CCOc1cnc2c(-c3nc4cc(F)c5c(c4s3)C[C@@H](CO)O5)cc(C)cc2n1 [Example 152, (S)-(2-(2-ethoxy-7-methylquinoxalin-5-yl)-5-fluoro-7,8-dihydrobenzofuro[5,4-d]thiazol-7-yl)methanol] |

Continued, molecule first:

| Structure (SMILES) | IC50 [nM] |
| --- | --- |
| COc1cnc2c(-c3nc4c(C)cc5c(c4s3)OCC(COC(=O)Nc3cncc(-c4ccccc4)c3)O5)cc(C)cc2n1 (centres unmarked) [Example 126, (2-(2-methoxy-7-methylquinoxalin-5-yl)-4-methyl-7,8-dihydro-[1,4]dioxino[2′,3′:3,4]benzo[1,2-d]thiazol-7-yl)methyl (5-phenylpyridin-3-yl)carbamate] | 67 |
| COc1cnc2c(-c3nc4c(C)cc5c(c4s3)OCC(COC(=O)Nc3ccc(-c4cccs4)nc3)O5)cc(C)cc2n1 (centres unmarked) [Example 127, (2-(2-methoxy-7-methylquinoxalin-5-yl)-4-methyl-7,8-dihydro-[1,4]dioxino[2′,3′:3,4]benzo[1,2-d]thiazol-7-yl)methyl (6-(thiophen-2-yl)pyridin-3-yl) carbamate] | 130 |
| COc1cnc2c(-c3nc4c(C)cc5c(c4s3)OCC(COC(=O)Nc3ccc(OCCN(C)C)nc3)O5)cc(C)cc2n1 (centres unmarked) [Example 128, (2-(2-methoxy-7-methylquinoxalin-5-yl)-4-methyl-7,8-dihydro-[1,4]dioxino[2′,3′:3,4]benzo[1,2-d]thiazol-7-yl)methyl (6-(2-(dimethylamino)ethoxy)pyridin-3-yl)carbamate] | 4 |
| COc1cnc2c(-c3nc4c(C)cc5c(c4s3)OCC(COC(=O)Nc3ccc(-n4cnc(C)n4)nc3)O5)cc(C)cc2n1 (centres unmarked) [Example 130, (2-(2-methoxy-7-methylquinoxalin-5-yl)-4-methyl-7,8-dihydro-[1,4]dioxino[2′,3′:3,4]benzo[1,2-d]thiazol-7-yl)methyl (6-(3-methyl-1H-1,2,4-triazol-1-yl)pyridin-3-yl)carbamate] | 1.5 |
| COc1cnc2c(-c3nc4c(C)cc5c(c4s3)OCC(COC(=O)Nc3ccc(C(F)(F)F)nc3)O5)cc(C)cc2n1 (centres unmarked) [Example 131, (2-(2-methoxy-7-methylquinoxalin-5-yl)-4-methyl-7,8-dihydro-[1,4]dioxino[2′,3′:3,4]benzo[1,2-d]thiazol-7-yl)methyl (6-(trifluoromethyl)pyridin-3-yl)carbamate] | 2 |
| CCOc1ccc(NC(=O)OCC2COc3c(cc(C)c4nc(-c5cc(C)cc6nc(OC)cnc56)sc34)O2)cn1 (centres unmarked) [Example 133, (2-(2-methoxy-7-methylquinoxalin-5-yl)-4-methyl-7,8-dihydro-[1,4]dioxino[2′,3′:3,4]benzo[1,2-d]thiazol-7-yl)methyl (6-ethoxypyridin-3-yl)carbamate] | 150 |
| COC(=O)c1cc(NC(=O)OCC2COc3c(cc(C)c4nc(-c5cc(C)cc6nc(OC)cnc56)sc34)O2)ccn1 (centres unmarked) [Example 134, methyl 4-((((2-(2-methoxy-7-methylquinoxalin-5-yl)-4-methyl-7,8-dihydro-[1,4]dioxino[2′,3′:3,4]benzo[1,2-d]thiazol-7-yl)methoxy)carbonyl)amino) picolinate] | 3.3 |
| COc1cnc2c(-c3nc4c(C)cc5c(c4s3)OCC(COC(=O)Nc3ccc(N4CCN(C(=O)OC(C)(C)C)CC4)nc3)O5)cc(C)cc2n1 (centres unmarked) [Example 136, tert-butyl 4-(5-((((2-(2-methoxy-7-methylquinoxalin-5-yl)-4-methyl-7,8-dihydro-[1,4]dioxino[2′,3′:3,4]benzo[1,2-d]thiazol-7-yl)methoxy)carbonyl)amino)pyridin-2-yl) piperazine-1-carboxylate] | 210 |
| COc1cnc2c(-c3nc4c(C)cc5c(c4s3)OCC(COC(=O)Nc3ccc(N4CCCC4)nc3)O5)cc(C)cc2n1 (centres unmarked) [Example 137, (2-(2-methoxy-7-methylquinoxalin-5-yl)-4-methyl-7,8-dihydro-[1,4]dioxino[2′,3′:3,4]benzo[1,2-d]thiazol-7-yl)methyl (6-(pyrrolidin-1-yl)pyridin-3-yl)carbamate] | 6.1 |
| COC(=O)c1cncc(NC(=O)OCC2COc3c(cc(C)c4nc(-c5cc(C)cc6nc(OC)cnc56)sc34)O2)c1 (centres unmarked) [Example 138, methyl 5-((((2-(2-methoxy-7-methylquinoxalin-5-yl)-4-methyl-7,8-dihydro-[1,4]dioxino[2′,3′:3,4]benzo[1,2-d]thiazol-7-yl)methoxy)carbonyl)amino)nicotinate] | 3.4 |
| COc1cnc2c(-c3nc4c(C)cc5c(c4s3)OCC(COC(=O)Nc3cnc4c(c3)CN(C(=O)OC(C)(C)C)CC4)O5)cc(C)cc2n1 (centres unmarked) [Example 139, tert-butyl 3-((((2-(2-methoxy-7-methylquinoxalin-5-yl)-4-methyl-7,8-dihydro-[1,4]dioxino[2′,3′:3,4]benzo[1,2-d]thiazol-7-yl)methoxy)carbonyl)amino)-7,8-dihydro-1,6-naphthyridine-6(5H)-carboxylate] | 2.1 |
| COc1cnc2c(-c3nc4c(C)cc5c(c4s3)OCC(COC(=O)Nc3ccc(NC(C)=O)nc3)O5)cc(C)cc2n1 (centres unmarked) [Example 140, (2-(2-methoxy-7-methylquinoxalin-5-yl)-4-methyl-7,8-dihydro-[1,4]dioxino[2′,3′:3,4]benzo[1,2-d]thiazol-7-yl)methyl (6-acetamidopyridin-3-yl)carbamate] | 230 |
| COc1cnc2c(-c3nc4c(C)cc5c(c4s3)OCC(COC(=O)Nc3cnc4[nH]ccc4c3)O5)cc(C)cc2n1 (centres unmarked) [Example 142, (2-(2-methoxy-7-methylquinoxalin-5-yl)-4-methyl-7,8-dihydro-[1,4]dioxino[2′,3′:3,4]benzo[1,2-d]thiazol-7-yl)methyl 1H-pyrrolo[2,3-b]pyridin-5-ylcarbamate] | 2.9 |
| COc1cnc2c(-c3nc4ccc5c(c4s3)C[C@H](COC(=O)Nc3cnc(C)nc3)O5)cc(C)cc2n1 [Example 144, (R)-(2-(2-methoxy-7-methylquinoxalin-5-yl)-7,8-dihydrobenzofuro[5,4-d]thiazol-7-yl)me thyl (2-methylpyrimidin-5-yl)carbamate] | 1.2 |
| COc1cnc2c(-c3nc4cc(F)c5c(c4s3)C[C@H](COC(=O)Nc3cnc(C)nc3)O5)cc(C)cc2n1 [Example 145, (R)-(5-fluoro-2-(2-methoxy-7-methylquinoxalin-5-yl)-7,8-dihydrobenzofuro[5,4-d]thiazo 1-7-yl)methyl (2-methylpyrimidin-5-yl)carbamate] | 1.8 |
| COc1cnc2c(-c3nc4c(Cl)cc5c(c4s3)CC(COC(=O)Nc3ccc(C)nc3)O5)cc(CO)cc2n1 (centres unmarked) [Example 148, (4-chloro-2-(7-(hydroxymethyl)-2-methoxyquinoxalin-5-yl)-7,8-dihydrobenzofuro[5,4-d]thiazol-7-yl)methyl (6-methylpyridin-3-yl)carbamate] | 0.7 |
| COc1cnc2c(-c3nc4cc(F)c5c(c4s3)C[C@@H](COC(=O)Nc3cnc(C)nc3)O5)cc(C)cc2n1 [Example 151, (S)-(5-fluoro-2-(2-methoxy-7-methylquinoxalin-5-yl)-7,8-dihydrobenzofuro[5,4-d]thiazol-7-yl)methyl (2-methylpyrimidin-5-yl)carbamate] | 3.9 |
